Data as given in patent publication US10806726B2, “Methods of using indazole-3-carb oxamides and their use as Wnt/B-catenin signaling pathway inhibitors” (Samumed, LLC, priority 2016, dated 2020).

Key:
[1] = test system: Wnt-responsive promoter driving firefly luciferase in SW480 cells; test: Wnt reporter (SP5 promoter-luciferase) screening assay in SW480 cells; assay type: cell-based; conditions: Homo sapiens, 24-40 h, top concentration ten micromolar
Excerpt: Another screening assay for Wnt activity is described as follows. Reporter cell lines can be generated by stably transducing cells of cancer cell lines (e.g., colon cancer) with a lentiviral construct that include a Wnt-responsive promoter driving expression of the firefly luciferase gene.
Lentiviral constructs can be made in which the SP5 promoter, a promoter having eight TCF/LEF binding sites derived from the SP5 promoter, is linked upstream of the firefly luciferase gene. The lentiviral constructs can also include a hygromycin resistance gene as a selectable marker. The SP5 promoter construct can be used to transduce SW480 cells, a colon cancer cell line having a mutated APC gene that generates a truncated APC protein, leading to de-regulated accumulation of β-catenin.
Cultured SW480 cells bearing a reporter construct can be distributed at approximately 10,000 cells per well into 96 well or 384 well plates. Compounds from a small molecule compound library can then be added to the wells in half-log dilutions using a ten micromolar top concentration. A series of control wells for each cell type receive only buffer and compound solvent. Twenty-four to forty hours after the addition of compound, reporter activity for luciferase can be assayed, for example, by addition of the BrightGlo luminescence reagent (Promega) and the Victor3 plate reader (Perkin Elmer). Readings can be normalized to DMSO only treated cells, and normalized activities can then be used in the EC50 calculations.

[2] = test system: primary human mesenchymal stem cells (hMSCs); test: Tenocyte differentiation screening in hMSCs (SCXA-positive cells, 4 days); assay type: cell-based; conditions: 96 h, fold change over DMSO
Excerpt: Representative compounds were screened using primary human mesenchymal stem cells (hMSCs) to determine their ability to induce tenocyte differentiation (process by which tendon is developed).
Primary human mesenchymal stem cells (hMSCs) were purchased from Lonza (Walkersville, Md.) and expanded in Mesenchymal Stem Cell Growth Media (Lonza). Cells between passage 3 and 6 were used for the experiments.
Cells were fixed using 4% formaldehyde (Electron Microscopy Sciences), and stained with anti-Sclerasis (anti-SCXA) antibodies (Abgent, San Diego, Calif.) [Webb S., et. al., Retinoic acid receptor signaling preserves tendon stem cell characteristics and prevents spontaneous differentiation in vitro, Stem Cell Research & Therapy 2016, 7:45] overnight at 4° C. […] Number of cells positive for SCXA in each well was quantified using the Celllnsight CX5. Data was normalized to the average of 12 DMSO treated wells on the same plate using Dotmatics Studies module. The normalized averages (fold change over DMSO) of 3 replicate wells for each compound concentration were calculated. Due to solubility limitations of some of the compounds, values for higher doses were manually corrected and curve fitting and EC50 determinations were performed using Dotmatics Studies.
EC50 for each compound is reported.

| Structure (SMILES) | EC50 [1] [nM] | EC50 [2] [nM] |
| --- | --- | --- |
| O=C(Nc1ccc(-c2ccc(F)cc2)nc1)c1n[nH]c2ccc(-c3cncc(CN4CCCCC4)c3)cc12 [compound 73, N-(6-(4-Fluorophenyl)pyridin-3-yl)-5-(5-(piperidin-1-ylmethyl)pyridin-3-yl)-1H-indazole-3-carboxamide] | 322 | > 100000 |
| CN(C)CCN(C)c1ccc(NC(=O)c2n[nH]c3ccc(-c4cncc(CN5CCCCC5)c4)cc23)cn1 [compound 74, N-(6-((2-(Dimethylamino)ethyl)(methyl)amino)pyridin-3-yl)-5-(5-(piperidin-1-ylmethyl)pyridin-3-yl)-1H-indazole-3-carboxamide] | 65 | 10200 |
| O=C(Nc1ccnnc1)c1n[nH]c2ccc(-c3cncc(CN4CCCCC4)c3)cc12 [compound 75, 5-(5-(Piperidin-1-ylmethyl)pyridin-3-yl)-N-(pyridazin-4-yl)-1H-indazole-3-carboxamide] | 40 | 12400 |
| O=C(NCc1cccnc1)c1n[nH]c2ccc(-c3cncc(CN4CCCCC4)c3)cc12 [compound 76, 5-(5-(Piperidin-1-ylmethyl)pyridin-3-yl)-N-(pyridin-3-ylmethyl)-1H-indazole-3-carboxamide] | 850 | 2670 |
| O=C(NC1CCCCC1)c1n[nH]c2ccc(-c3cncc(CN4CCCCC4)c3)cc12 [compound 77, N-Cyclohexyl-5-(5-(piperidin-1-ylmethyl)pyridin-3-yl)-1H-indazole-3-carboxamide] | 2650 | 6080 |
| O=C(Nc1ccc2c(c1)OCO2)c1n[nH]c2ccc(-c3cncc(CN4CCCCC4)c3)cc12 [compound 78, N-(Benzo[d][1,3]dioxol-5-yl)-5-(5-(piperidin-1-ylmethyl)pyridin-3-yl)-1H-indazole-3-carboxamide] | 239 | > 100000 |
| O=C(Nc1ccc2c(c1)OCCO2)c1n[nH]c2ccc(-c3cncc(CN4CCCCC4)c3)cc12 [compound 79, N-(2,3-Dihydrobenzo[b][1,4]dioxin-6-yl)-5-(5-(piperidin-1-ylmethyl)pyridin-3-yl)-1H-indazole-3-carboxamide] | 123 | > 100000 |
| O=C(Nc1cncc(Cc2ccccc2)c1)c1n[nH]c2ccc(-c3cncc(CN4CCCCC4)c3)cc12 [compound 80, N-(5-Benzylpyridin-3-yl)-5-(5-(piperidin-1-ylmethyl)pyridin-3-yl)-1H-indazole-3-carboxamide] | 158 | > 100000 |
| O=C(Nc1cnccn1)c1n[nH]c2ccc(-c3cncc(CN4CCCCC4)c3)cc12 [compound 81, 5-(5-(Piperidin-1-ylmethyl)pyridin-3-yl)-N-(pyrazin-2-yl)-1H-indazole-3-carboxamide] | 77 to 142 | > 100000 |
| O=C(Nc1ccccc1)c1n[nH]c2ccc(-c3cncc(CN4CCCCC4)c3)cc12 [compound 82, N-Phenyl-5-(5-(piperidin-1-ylmethyl)pyridin-3-yl)-1H-indazole-3-carboxamide] | 143 to 188 | > 100000 |
| CN1CCN(C(=O)c2n[nH]c3ccc(-c4cncc(CN5CCCCC5)c4)cc23)CC1 [compound 83, (4-Methylpiperazin-1-yl)(5-(5-(piperidin-1-ylmethyl)pyridin-3-yl)-1H-indazol-3-yl)methanone] | 2500 to 3400 | > 100000 |
| C[C@@H]1CCC[C@H](C)N1Cc1cncc(-c2ccc3[nH]nc(C(=O)Nc4cccnc4)c3c2)c1 [compound 84, 5-(5-(((2R,6 S)-2,6-Dimethylpiperidin-1-yl)methyl)pyridin-3-yl)-N-(pyridin-3-yl)-1H-indazole-3-carboxamide] | 822 to 898 | > 100000 |
| CN(C)Cc1cncc(NC(=O)c2n[nH]c3ccc(-c4cncc(CN5CCCCC5)c4)cc23)c1 [compound 86, N-(5-((Dimethylamino)methyl)pyridin-3-yl)-5-(5-(piperidin-1-ylmethyl)pyridin-3-yl)-1H-indazole-3-carboxamide] | 66 | 5270 |
| CN1CCC(NC(=O)c2n[nH]c3ccc(-c4cncc(CN5CCCCC5)c4)cc23)CC1 [compound 87, N-(1-Methylpiperidin-4-yl)-5-(5-(piperidin-1-ylmethyl)pyridin-3-yl)-1H-indazole-3-carboxamide] | 2440 | 1580 |
| CN(C)Cc1cncc(NC(=O)c2n[nH]c3ccc(-c4cncc(CN5CCCC5)c4)cc23)c1 [compound 106, N-(5-((Dimethylamino)methyl)pyridin-3-yl)-5-(5-(pyrrolidin-1-ylmethyl)pyridin-3-yl)-1H-indazole-3-carboxamide] | 33 | 5540 |
| CN1CCN(Cc2cncc(NC(=O)c3n[nH]c4ccc(-c5cncc(CN6CCCCC6)c5)cc34)c2)CC1 [compound 124, N-(5-((4-Methylpiperazin-1-yl)methyl)pyridin-3-yl)-5-(5-(piperidin-1-ylmethyl)pyridin-3-yl)-1H-indazole-3-carboxamide] | 67 | > 100000 |
| O=C(Nc1ccc(N2CCCCC2)nc1)c1n[nH]c2ccc(-c3cncc(CN4CCCCC4)c3)cc12 [compound 126, N-(6-(Piperidin-1-yl)pyridin-3-yl)-5-(5-(piperidin-1-ylmethyl)pyridin-3-yl)-1H-indazole-3-carboxamide] | 22 | 5540 |
| O=C(Nc1cccc(F)c1)c1n[nH]c2ccc(-c3cncc(CN4CCCCC4)c3)cc12 [compound 162, N-(3-Fluorophenyl)-5-(5-(piperidin-1-ylmethyl)pyridin-3-yl)-1H-indazole-3-carboxamide] | 426 | > 100000 |
| O=C(NC1CCOCC1)c1n[nH]c2ccc(-c3cncc(CN4CCCCC4)c3)cc12 [compound 163, 5-(5-(Piperidin-1-ylmethyl)pyridin-3-yl)-N-(tetrahydro-2H-pyran-4-yl)-1H-indazole-3-carboxamide] | 15400 | 5090 |
| O=C(Nc1cncc(F)c1)c1n[nH]c2ccc(-c3cncc(CN4CCCCC4)c3)cc12 [compound 168, N-(5-Fluoropyridin-3-yl)-5-(5-(piperidin-1-ylmethyl)pyridin-3-yl)-1H-indazole-3-carboxamide] | 66 | > 100000 |
| O=C(Nc1ccc(N2CCC(O)CC2)nc1)c1n[nH]c2ccc(-c3cncc(CN4CCCCC4)c3)cc12 [compound 169, N-(6-(4-Hydroxypiperidin-1-yl)pyridin-3-yl)-5-(5-(piperidin-1-ylmethyl)pyridin-3-yl)-1H-indazole-3-carboxamide] | 49 | 4900 |
| O=C(Nc1ccc(N2CCCC2)nc1)c1n[nH]c2ccc(-c3cncc(CN4CCC(O)CC4)c3)cc12 [compound 170, 5-(5-((4-Hydroxypiperidin-1-yl)methyl)pyridin-3-yl)-N-(6-(pyrrolidin-1-yl)pyridin-3-yl)-1H-indazole-3-carboxamide] | 43 | > 100000 |
| Cc1cc(NC(=O)c2n[nH]c3ccc(-c4cncc(CN5CCCCC5)c4)cc23)cnc1N1CCCC1 [compound 172, N-(5-Methyl-6-(pyrrolidin-1-yl)pyridin-3-yl)-5-(5-(piperidin-1-ylmethyl)pyridin-3-yl)-1H-indazole-3-carboxamide] | 60 | > 100000 |
| Cc1cc(NC(=O)c2n[nH]c3ccc(-c4cncc(CN5CCCCC5)c4)cc23)cnc1N1CCC1 [compound 173, N-(6-(Azetidin-1-yl)-5-methylpyridin-3-yl)-5-(5-(piperidin-1-ylmethyl)pyridin-3-yl)-1H-indazole-3-carboxamide] | 36 | > 100000 |
| O=C(Nc1ccc(N2CCC2)nc1)c1n[nH]c2ccc(-c3cncc(CN4CCCCC4)c3)cc12 [compound 174, N-(6-(Azetidin-1-yl)pyridin-3-yl)-5-(5-(piperidin-1-ylmethyl)pyridin-3-yl)-1H-indazole-3-carboxamide] | 48 | 5540 |
| Nc1ncc(NC(=O)c2n[nH]c3ccc(-c4cncc(CN5CCCCC5)c4)cc23)cn1 [compound 176, N-(2-Aminopyrimidin-5-yl)-5-(5-(piperidin-1-ylmethyl)pyridin-3-yl)-1H-indazole-3-carboxamide] | 30 | 4650 |
| O=C(Nc1ccc(N2CCNCC2)nc1)c1n[nH]c2ccc(-c3cncc(CN4CCCCC4)c3)cc12 [compound 177, N-(6-(Piperazin-1-yl)pyridin-3-yl)-5-(5-(piperidin-1-ylmethyl)pyridin-3-yl)-1H-indazole-3-carboxamide] | 183 | 5170 |
